Assays:
[1] = test system: MDA-MB-435 breast cancer cells; assay: Photostability: cytotoxicity of solutions kept under room light, Neutral Red assay; format: cell-based, human; conditions: EF24-GSH: 10 mM in sterile water, up to 48 hours under room light, FIG. 3; EF24: diluted aqueous solution, overnight
Protocol: MDA-MB-435 breast cancer cells were seeded at 2×10^4 per well in a 96-well plate with DMEM medium supplemented with 10% FBS, plus antibiotics penicillin and streptomycin. After 24 hours, cells were treated with EF24-GSH in the presence of the above growth medium. EF24-GSH solutions were made fresh at 10 mM with sterile water and placed under room light in clear Eppendorf tubes for 30 min, 24 hours and 48 hours, respectively, before adding to the cells. Cell viability was determined after 48 hours of treatment with EF24-GSH conjugate using the Neutral Red assay.

[2] = Photostability: appearance of aqueous solution under room light; format: physicochemical; conditions: EF24-GSH: after 48 hours under room light; EF24: diluted aqueous solution, overnight
[3] = background statement; cited from earlier work
tumor cell growth = conditions: background statement; cited from earlier work
[4] = test system: MDA-MB-231 human breast cancer cells; conditions: MDA-MB-231 cells, background statement; cited from earlier work
[5] = test system: DU-145 human prostate cancer cells; conditions: DU-145 cells, background statement; cited from earlier work
[6] = background statement; cited from earlier work; remark: listed apart in the source

Q: Which “cytotoxicity after exposure of the solution to room light” value [1] does the source give for CC(=O)O.O=C1C(=Cc2ccccc2F)CNCC1=Cc1ccccc1F [EF24, 3,5-Bis-(2-fluorobenzylidene)-piperidin-4-one, acetic acid salt] here?
A: severely compromised

Q: And the “colour of the solution under room light” value [2]?
A: turns dark overnight

Q: And the photostability [3]?
A: poor photostability

Q: What about the water solubility [3] of the same molecule?
A: relatively insoluble in water

Q: What about the “inhibition of tumor cell growth, potency compared with cisplatin” value (tumor cell growth) of the same molecule?
A: higher potency than cisplatin

Q: And the cell cycle arrest [4]?
A: G2/M arrest

Q: What about the cell cycle arrest [5] of the same molecule?
A: G2/M arrest

Q: And the toxicity [6]?
A: relatively little toxicity

From patent US20070270464A1, “PRODRUGS OF CURCUMIN ANALOGS” (priority 2006, published 2007)
